For test [1], the system named is pERK in A375 cells (BRAF^V600E, homozygous). Put plainly: Phospho-ERK AlphaScreen assay, pERK inhibition in A375. It counts as cell-based. To be noted: Homo sapiens, A-375, 1 h, read-out: pERK inhibition IC50 A375. Here is the method:
(§1) Phospho-ERK AlphaScreen® assay: The degree of ERK phosphorylation was determined using an AlphaScreen® assay where an increase in ERK1/2 phosphorylation at Thr202/Tyr204 brought the donor and acceptor AlphaScreen® beads into close proximity, generating a signal for quantification. To determine the effects of compound treatment on phosphorylation of ERK1/2, cells were plated in a 96-well plate and treated with an 8-point titration of compound for one hour at 37° C. before lysis. To detect pERK, cell lysates were incubated with streptavidin-coated AlphaScreen® donor beads, anti-mouse IgG AlphaScreen® acceptor beads, a biotinylated anti-ERK1/2 rabbit antibody, and a mouse antibody that recognizes ERK1/2 only when it is phosphorylated on Thr202 and Tyr204. The biotinylated ERK1/2 antibody binds to both the streptavidin-coated AlphaScreen® donor beads and to ERK1/2 (regardless of its phosphorylation state), and the phospho-ERK1/2 antibody binds to the acceptor beads and to ERK1/2 that is phosphorylated at Thr202/Tyr204. An increase in ERK1/2 phosphorylation at Thr202/Tyr204 brings the donor and acceptor AlphaScreen® beads into close proximity, generating a signal that can be quantified on an EnVision reader (Perkin Elmer).
(§2) Using AlphaScreen® technology, the ability of Formula I to affect the phosphorylation of ERK and MEK in the cells was measured quantitatively. Following treatment with compound, the cells were lysed, and a sample of the lysate was transferred to an assay plate. The lysate was mixed with antibodies directed against total ERK/MEK, antibodies that recognize specific phosphorylation sites on ERK/MEK, AlphaScreen® anti-mouse IgG Acceptor beads, and Streptavidin Donor beads. Upon excitation of the donor beads with laser light at 680 nm, singlet oxygen was produced. This singlet oxygen was rapidly quenched, unless the AlphaScreen® Acceptor beads were in close proximity, in which case a proximity signal can be measured at 580 nm. In the presence of phosphorylated ERK/MEK, there is a very strong proximity signal.
(§3) 1. One day before the assay, 50,000 cells were plated in each well of a 96-well tissue-culture-treated plate (Corning #3610) in a 50 μL volume. Cells were incubated at 37° C. overnight.
(§4) 2. Compounds were diluted in DMSO to 500× final concentration. Each compound was plated as an 8-point titration, using 1:3 dilutions in DMSO. The maximum concentration was about 5 mM.
(§5) 3. 1 μl of compound was added to each well of a 96-well polypropylene plate (Corning #3363). For A375, COLO829, SK-MEL-3, HCT116, and HT-29, the high control was DMSO, and the low control was 10 μM PLX4720 (CAS No. 918505-84-7). For B9 and IPC-298, the high control was 3.33 μM PLX4720, and the low control was DMSO. 4. 249 μL growth media was added to compounds, diluting them 250-fold. 5. […] The compound was incubated with the cells at 37° C. for one hour. 6. The media was aspirated, and the cells were lysed in 50 μL of ice-cold 1× Cell Lysis buffer. The plates were incubated on ice for 5 minutes to allow complete lysis of the cells. 7. A mixture of biotinylated donor antibody, acceptor antibody, and anti-mouse IgG AlphaScreen® acceptor beads in 1× AlphaLISA immunoassay buffer was prepared. 8. 5 μL of lysate was transferred to a 384-well assay plate (Perkin Elmer #6005359). 5 μL of the antibody and acceptor bead mixture was added. The plates were spinned.
Background: Bead proximity is the source of the signal in Alpha formats.

Test [2] deals with pERK in COLO829 cells (BRAF^V600E, heterozygous). The experiment in a line: Phospho-ERK AlphaScreen assay, pERK inhibition in COLO829. To be noted: Homo sapiens, COLO-829, 1 h, read-out: pERK inhibition IC50 COLO829. It counts as cell-based. The method, then:
as §1, §2, §3, §4, §5

For test [3], the system named is pERK in B9 cells (HRAS^Q61L). The experiment in a line: Phospho-ERK AlphaScreen assay, pERK activation in B9. In kind it is cell-based, murine. To be noted: Mus musculus, read-out: pERK activation EC50 B9. The method, then: as §1, §2, §3, §4, §5
The test system of test [4] is pERK in IPC-298 cells (NRAS^Q61L). The experiment in a line: Phospho-ERK AlphaScreen assay, pERK activation in IPC-298. In kind it is cell-based, human. To be noted: Homo sapiens, IPC-298, read-out: pERK activation EC50 IPC298. The method, then:
as §1, §2, §3, §4, §5

Test [5] has as its system pERK in HCT116 cells (KRAS^G13D). The experiment in a line: Phospho-ERK AlphaScreen assay, pERK activation in HCT116. In kind it is cell-based. To be noted: Homo sapiens, HCT-116, read-out: pERK activation EC50 HCT116. The method, then: as §1, §2, §3, §4, §5
Test [6] addresses NIH/3T3 cells stably expressing KIAA1549-BRAF fusions (Homo sapiens, UniProt P15056). The experiment in a line: BRAF fusion xenograft tumor growth. In kind it is in vivo, balb/c nu/nu mice. To be noted: three of the four KIAA1549-BRAF fusions; PLX4720 chow. Here is the method: NIH/3T3 (ATCC® CRL-1658™) cells stably expressing KIAA1549-BRAF fusions (Fusion-1, Fusion-2, Fusion-3, and Fusion-4) were injected into the flank of balb/c nu/nu mice. Tumor growth was measured with calipers. Ellipsoid tumor volume was calculated using the following formula: volume=½·length·width^2.

Usually pIC50 stands for the negative decadic logarithm of the IC50, by convention in mol/L. Usually pEC50 stands for −log10 of the EC50, conventionally taken in molar units.

pEC50, pIC50: −log10 of the molar value.

Chain of NIH/3T3 cells stably expressing KIAA1549-BRAF fusions (P15056 448-766 limits assumed): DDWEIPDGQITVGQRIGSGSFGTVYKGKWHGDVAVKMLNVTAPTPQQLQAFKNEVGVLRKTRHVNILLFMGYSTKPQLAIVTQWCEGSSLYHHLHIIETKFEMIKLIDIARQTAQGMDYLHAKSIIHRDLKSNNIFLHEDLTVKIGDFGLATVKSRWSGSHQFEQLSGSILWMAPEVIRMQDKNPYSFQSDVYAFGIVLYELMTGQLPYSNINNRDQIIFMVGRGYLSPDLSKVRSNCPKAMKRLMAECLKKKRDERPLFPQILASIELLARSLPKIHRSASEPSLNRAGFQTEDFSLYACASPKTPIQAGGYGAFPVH

In the case of `CC(C)(C)c1nc(-c2cccc(NS(=O)(=O)c3c(F)cccc3F)c2F)c(-c2ccnc(N)n2)s1` [Dabrafenib, dabrafenib], the pIC50 in test [1] was 9.00; in test [2] it was 8.30. Also, the pEC50 in test [3] is 8.00; in test [4] it was 8.00; in test [5], 8.52.
Turning to `CCCS(=O)(=O)Nc1ccc(F)c(C(=O)c2c[nH]c3ncc(Cl)cc23)c1F` [PLX4720, reference compound], the “Effect on xenograft tumor growth (in words)” value in test [6] is “increased tumor growth”.
With `CNC(=O)c1cc(Oc2ccc(NC(=O)Nc3ccc(Cl)c(C(F)(F)F)c3)cc2)ccn1` [Sorafenib, sorafenib], the pIC50 was 5.36 in test [1] and 5.70 in test [2]. Also, the pEC50 was 7.60 in test [3], 7.72 in test [4] and 7.07 in test [5].

These data come from patent publication US9814714B2, “Kinase modulation, and indications therefor” (Plexxikon Inc., priority 2015, dated 2017).
